Earlier results in patent EP0890570A2, “Tertiary alkyl primary amines and process for preparing the same” (ROHM AND HAAS COMPANY, priority 1997, dated 1999).

Settings: conventional comparison amines, stated without source or method

| SMILES | pKa |
| --- | --- |
| CC(C)CCCCCCN [iso-nonylamine] | 10 |
| CCCCCCCCCN [n-nonylamine] | 10 |
